# Reference: patent US8592572B2, “Liposome containing shRNA molecule targeting a thymidylate synthase and use thereof” (Delta-Fly Pharma, Inc., priority 2011, dated 2013)
# Assays:
# MSTO 211H tumor = assay: Antitumor effects of PEG-modified lipoplex upon systemic administration to MSTO 211H cancer-bearing mouse; format: in vivo, BALB/c nu/nu male mice; conditions: MSTO 211H tumor-bearing mice; day 21 from beginning of administration; lipoplex 40 μg shRNA i.v. 6 times; pemetrexed 100 mg/kg i.p. 6 times
# Method: BALB/c nu/nu male mice were subcutaneously inoculated with a MSTO 211H cell suspension (5×10^6 cells/100 μL). On day 14 from tumor cell inoculation, mice with tumor volumes of 50-100 mm^3 were subjected to an in vivo experiment.
# The PEG-modified lipoplex prepared in Example 5 was administered via the mouse caudal vein to the MSTO 211H tumor bearing mice at a dose of 40 μg/200 μL (in terms of the shRNA amount) at 1-day intervals for 6 times in total starting on day 14 after tumor transplantation.
# When the existing chemotherapeutic agent, pemetrexed sodium hydrate (Alimta (registered trademark) (Eli Lilly Japan K.K.)), was used in combination with the lipoplex, the agent was intraperitoneally administered 6 times in total (day 1, 2, 3, 8, 9 and 10) with 100 mg/kg starting on day 14 after tumor transplantation.
# Carcinostatic activity was determined with tumor growth inhibition rate (TGI) (%) at day 21 from beginning of the administration. The TGI (%) was calculated in the same manner as described in the Example 6.
# [1] = test system: thymidylate synthase (TS); assay: siRNA and shRNA-induced TS expression inhibition (transfection with Lf RNAi MAX, Western blotting); format: cell-based, human; conditions: 1, 5 or 10 nM, 72 hours after transfection
# Method: Lipofectamine™ RNAi MAX (hereafter referred to as “Lf RNAi MAX”), which is a cationic liposome, was used as a transfection reagent.
# shRNA or siRNA prepared in Example 1 and Lf RNAi MAX were separately diluted with OptiMEM. The resulting solutions were mixed at a ratio of shRNA or siRNA to Lf RNAi MAX of 100 (pmol): 5 (μL). Here, equivalent amounts of the shRNA or siRNA solution and the Lf RNAi MAX solution were used. The obtained liquid mixture was left at room temperature for 10 to 20 minutes, resulting in complex (lipoplex) formation.
# Each lipoplex was directly added to a 10-cm dish containing OptiMEM to adjust the total volume to 5 ml. Next, DLD-1 or DLD-1/FU cell suspension (10 ml) was seeded on the dish (500,000 cells/dish) so as to result in a final total volume of 15 ml, followed by transfection. Here, the final concentration of shRNA or siRNA was adjusted to 1, 5, or 10 nM. After the initiation of transfection, culture was carried out in a medium at 37° C. under 5% CO2 for 72 hours. […]
# For detection of TS and β-actin, overnight reaction was carried out at 4° C. using the following primary antibodies each diluted with Tween buffer: a mouse monoclonal anti-human TS antibody (1:1000) (ANASPEC, Inc., CA, USA); and a mouse monoclonal anti-human β-actin antibody (1:500) (Bio Vision, Inc., CA, USA). […] The band of each protein of interest was detected on X-ray film.
# DLD-1 cells = assay: Cancer cell proliferation inhibitory effects of siRNA and shRNA, MTT, DLD-1; format: cell-based, human; conditions: 5 nM siRNA/shRNA, in the presence of 5-FU 0.1 μg/mL
# Method: (§1) In this Example, experimentation was performed on a 96-well plate scale. A lipoplex obtained as in the case of Example 2 was directly added to wells containing OptiMEM to adjust the total volume to 50 μl per well. Next, a DLD-1 or DLD-1/FU cell (human colonic intestinal adenocarcinoma cell) suspension (2,000 cells/100 μl) was added to the wells to which the lipoplex had been added (final total volume: 150 μl), followed by transfection. Here, the final concentration of shRNA or siRNA per well was 5 nM.
# (§2) The medium was removed from each well 24 hours after the initiation of transfection. A fresh medium containing or not containing an existing chemotherapeutic agent, 5-FU, was added thereto (200 μl per well). Here, 5-FU was added to DLD-1 so as to result in a concentration of 0.1 μg/mL. 5-FU was added to DLD-1/FU so as to result in a concentration of 10 μg/mL. The medium was removed 0, 24, 48, 72, or 96 hours after the addition of the fresh medium. […] Also, the 0.5% MTT solution was added to cell-free wells to obtain a background absorbance.
# (§3) After the completion of incubation, acidic isopropanol (150 μl) was added to each well. […] Absorbance was determined at a wavelength of 570 nm using a plate reader. Then, the cell proliferation rate was calculated. […]
# MSTO 211H cells = assay: Human plura malignant mesothelioma cell proliferation inhibitory effects of shRNA, MTT; format: cell-based; conditions: 5 or 10 nM shRNA, in the presence of pemetrexed sodium hydrate 10 ng/mL
# Method: The experiment was carried out according to the method described in Example 3, except for using human plura malignant mesothelioma cell line (MSTO 211H) instead of human colorectal carcinoma cell line (DLD-1 or DLD-1/FU) and using pemetrexed sodium hydrate (Alimta (registered trademark) (Eli Lilly Japan K.K.)) instead of 5-FU as an existing chemotherapeutic agent. In the transfection, the final concentration of shRNA per well was either 5 or 10 nM. Pemetrexed sodium hydrate was added to a fresh medium at 10 ng/mL
# Cell proliferation rate (%) was calculated in the same manner as described in the Example 3. FIG. 6 show the results.
# DLD-1/FU cells = assay: Cancer cell proliferation inhibitory effects of siRNA and shRNA, MTT, DLD-1/FU; format: cell-based, human; conditions: 5 nM siRNA/shRNA, in the presence of 5-FU 10 μg/mL
# Method: as §1, §2, §3
Compound,tumor growth inhibitory effects (TGI) (MSTO 211H tumor),TS expression inhibition ([1]; DLD-1/FU cells),TS expression inhibition ([1]; DLD-1 cells),inhibition of cell proliferation (DLD-1 cells),inhibition of cell proliferation (MSTO 211H cells),inhibition of cell proliferation (DLD-1/FU cells)
Nc1nc2[nH]cc(CCc3ccc(C(=O)N[C@@H](CCC(=O)O)C(=O)O)cc3)c2c(=O)[nH]1 [pemetrexed sodium hydrate],approximately 28%,–,–,–,–,–
"shTS: shRNA targeting TS, SEQ ID NO: 8, 5′-GUAACACCAUCGAUCAUGAUAGUGCUCCUGGUUGUCAUGAUCGAUGGUGUUACUU-3′, with two-uracil 3′ overhang (short hairpin RNA, chemistry not given here, further chemistry not given here)",–,significantly inhibit TS expression,significantly inhibit TS expression,significantly inhibited proliferation,significantly inhibited proliferation,significantly inhibited proliferation
